According to paper PMC5650142, “GPR40 partial agonists and AgoPAMs: Differentiating effects on glucose and hormonal secretions in the rodent” (PLoS ONE, 2017):
Values joined by “and” are separate entries in the source; they are usually repeats but may differ in a detail not shown here. Equal entries are not always repeated. Where two headings read alike, the source gives them in different places.

Tests used:
human GPR40 = human GPR40 (Homo sapiens, UniProt O14842); experiment: GPR40 binding assay, AgoPAM tracer [3H]25 ([3H]AP9); parameters: expressed in transfected cells; host or cells: CHO / CHO-K1 cells, membrane preparation;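 as to % Bound Normalized to 100: 100% bound is tracer binding in DMSO-only wells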;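 as to %Bound: 100% bound is tracer binding in DMSO-only wells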
Sequence of human GPR40 (O14842 whole entry): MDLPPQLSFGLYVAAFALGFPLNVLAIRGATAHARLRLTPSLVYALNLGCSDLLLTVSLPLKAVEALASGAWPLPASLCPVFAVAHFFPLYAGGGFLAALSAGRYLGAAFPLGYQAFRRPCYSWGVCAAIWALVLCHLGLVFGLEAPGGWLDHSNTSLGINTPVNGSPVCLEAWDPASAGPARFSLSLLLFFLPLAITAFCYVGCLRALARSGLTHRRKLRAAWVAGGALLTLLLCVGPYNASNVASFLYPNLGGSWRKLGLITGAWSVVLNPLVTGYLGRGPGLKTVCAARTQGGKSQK
Description: Two small molecule tracers, the partial agonist [3H][…] and the AgoPAM [3H]25, are used to measure compound affinity at each site as described previously. Because of the allosteric coupling of the two sites and the nature of the assay, addition of a compound will either displace (binds to same site) or augment (binds to allosterically coupled site) radiotracer. Membranes expressing GPR40 were prepared from CHO cells stably expressing human GPR40. […] Sigma P8830) and were homogenized in 50 ml aliquots with a motor-driven glass Dounce homogenizer, 15 strokes at 1900 rpm on wet ice, repeating once. Homogenates were centrifuged at 2200 rpm for 10 min at 4°C. Supernatants were carefully removed and pooled. Homogenization and centrifugation were repeated until the debris pellet was translucent to maximize membrane recovery. Supernatants were then centrifuged at […] rpm for 20 min. at 4°C. […] Protein concentration was determined by Pierce BCA kit. […] The beads and membrane mixture is then vigorously mixed for 30 minutes at room temperature prior to addition to the assay. […] Next, 15 μl of the radioligand and 35 μl of the beads/membranes solution is added to each well. The assay plates are then sealed and incubated for 30 minutes at room temperature on an orbital shaker. The plates are allowed to settle for 16 hours and then counted on a TopCount scintillation counter (PE). […] Maximal % bound and IC50 are then determined for each test compound. 5 μg/well membrane together with 200 μg/well of PVT WGA SPA beads (GE #RPNG-0001) were suspended in a white 96 well plate with a final concentration of 50 μl/well in assay buffer (50 mM Tris, 10 mM MgCl2, and 2 mM EDTA). […] The plate is briefly mixed and incubated for 3-18 h at room temperature, before it is read on a MicroBeta plate counter (Perkin Elmer, MS, USA).

[1] = test system: pancreatic islets from wild type and GPR40−/− mice; experiment: Isolated pancreatic islets static GDIS assay (insulin, glucagon secretion); format: cell-based, mouse; parameters: Islet insulin / Islet insulin, mean: unit not given here; conditions: for glucagon secretion from islets: ex vivo; for Islet Glucagon / Islet insulin: individual replicates; for Islet Glucagon, mean / Islet insulin, mean: mean of replicates
Description: Pancreatic islets of Langerhans were isolated from wild type and GPR40^−/− mice (littermates) by collagenase digestion and discontinuous Ficoll gradient separation. […] Insulin secretion was determined by a 1-h static incubation in Krebs-Ringer bicarbonate (KRB) buffer in a 96-well format as previously described. […] The buffer was removed from the wells at the end of the incubation and assayed for insulin levels using the Insulin ELISA kit (ALPCO, Salem, NH) and glucagon level using glucagon ELISA kit (ALPCO, Salem, NH).

[2] = radioligand L-005306257, dose 0.318285 nM
[3] = radioligand L-005306257, dose 1.00578 nM
[4] = radioligand L-005306257, dose 3.17827 nM
[5] = radioligand L-005306257, dose 10.0433 nM
[6] = radioligand L-005306257, dose 31.7369 nM
[7] = radioligand L-005306257, dose 100.289 nM
[8] = radioligand L-005306257, dose 316.912 nM
[9] = radioligand L-005306257, dose 1001.44 nM
[10] = radioligand L-005306257, dose 3164.56 nM
[11] = radioligand L-005306257, dose 10000 nM

**Q.** What does the source list for `COc1ccc(F)c(-c2ccc([C@@H]3CCc4ccc([C@H](C5CC5)[C@H](C)C(=O)O)cc4O3)cc2)c1` [AP1]?
**A.** Binding Results, % in parentheses, [^3H]AP9 (human GPR40; WT human GPR40, maximal % (not defined)): (101%); IC50 (human GPR40; WT human GPR40, n = 2–13, read-out: Binding Results [IC50, nM], [^3H]AP9): 2.7 ± 0.7 nM; binding of [^3H]25 (human GPR40; human GPR40 membranes, competition binding): displace; %Act, HUMAN GPR40, Binding Data (human GPR40; individual determinations, AgoPAM tracer (per Table 2)): 99% and 102%; IC50 (human GPR40; individual determinations, AgoPAM tracer (per Table 2), read-out: IC50 (nM), HUMAN GPR40, Binding Data): 2.2 nM and 3.2 nM; % Bound Normalized to 100 (human GPR40; [2]): 100.21%; %Bound (human GPR40; [2]): 94.32%; inhibition at 0.000318285 µM (human GPR40; [2]): 5.68%; % Bound Normalized to 100 (human GPR40; [3]): 76.16%; %Bound (human GPR40; [3]): 70.27%; inhibition at 0.00100578 µM (human GPR40; [3]): 29.7%; % Bound Normalized to 100 (human GPR40; [4]): 60.56%; %Bound (human GPR40; [4]): 54.67%; inhibition at 0.00317827 µM (human GPR40; [4]): 45.3%; % Bound Normalized to 100 (human GPR40; [5]): 29.85%; %Bound (human GPR40; [5]): 23.96%; inhibition at 0.0100433 µM (human GPR40; [5]): 76%; % Bound Normalized to 100 (human GPR40; [6]): 20.26%; %Bound (human GPR40; [6]): 14.37%; inhibition at 0.0317369 µM (human GPR40; [6]): 85.6%; % Bound Normalized to 100 (human GPR40; [7]): 11.49%; %Bound (human GPR40; [7]): 5.60%; inhibition at 0.100289 µM (human GPR40; [7]): 94.4%; % Bound Normalized to 100 (human GPR40; [8]): 7.10%; %Bound (human GPR40; [8]): 1.21%; inhibition at 0.316912 µM (human GPR40; [8]): 98.8%; % Bound Normalized to 100 (human GPR40; [9]): 8.08%; %Bound (human GPR40; [9]): 2.18%; inhibition at 1.00144 µM (human GPR40; [9]): 97.8%; % Bound Normalized to 100 (human GPR40; [10]): 6.45%; %Bound (human GPR40; [10]): 0.56%; inhibition at 3.16456 µM (human GPR40; [10]): 99.4%; % Bound Normalized to 100 (human GPR40; [11]): 7.75%; %Bound (human GPR40; [11]): 1.86%; inhibition at 10 µM (human GPR40; [11]): 98.1%; glucagon secretion from islets ([1]; GPR40-/- mouse islets): abolished; Islet Glucagon ([1]; KO mouse islets, G2, 1uM): 8.295 pg/ml/ islet and 16.584 pg/ml/ islet and 5.331 pg/ml/ islet and 9.664 pg/ml/ islet and 1.86 pg/ml/ islet and 24.388 pg/ml/ islet and 22.826 pg/ml/ islet and 23.18 pg/ml/ islet and 16.858 pg/ml/ islet and 27.237 pg/ml/ islet; Islet insulin ([1]; KO mouse islets, G2, 1uM): 0.224 and 0.186 and 0.933 and 0.721 and 1.124 and 0.514 and 0.261 and 0.152 and 0.181 and 0.215; Islet Glucagon, mean ([1]; KO mouse islets, G2, 1uM): 15.6223 pg/ml/ islet; Islet insulin, mean ([1]; KO mouse islets, G2, 1uM): 0.4511; Islet Glucagon ([1]; KO mouse islets, G16, 1uM): 5.183 pg/ml/ islet and 12.803 pg/ml/ islet and 9.635 pg/ml/ islet and 3.883 pg/ml/ islet and 11.858 pg/ml/ islet and 6.688 pg/ml/ islet and 0.121 pg/ml/ islet and 5.519 pg/ml/ islet and 6.26 pg/ml/ islet and 3.878 pg/ml/ islet; Islet insulin ([1]; KO mouse islets, G16, 1uM): 2.959 and 3.403 and 3.966 and 2.272 and 3.839 and 3.783 and 2.961 and 3.664 and 2.593 and 1.94; Islet Glucagon, mean ([1]; KO mouse islets, G16, 1uM): 6.5828 pg/ml/ islet; Islet insulin, mean ([1]; KO mouse islets, G16, 1uM): 3.138; Islet Glucagon ([1]; WT mouse islets, G2, 1uM): 55.828 pg/ml/ islet and 87.628 pg/ml/ islet and 54.498 pg/ml/ islet and 21.019 pg/ml/ islet and 35.248 pg/ml/ islet and 60.615 pg/ml/ islet and 73.937 pg/ml/ islet and 63.3 pg/ml/ islet and 50.656 pg/ml/ islet and 33.503 pg/ml/ islet; Islet insulin ([1]; WT mouse islets, G2, 1uM, listed as L-005306254): 0.53 and 1.151 and 0.66 and 1.39 and 2.61 and 1.55 and 1.058 and 0.71 and 0.4565 and 0.7725; Islet Glucagon, mean ([1]; WT mouse islets, G2, 1uM): 53.6232 pg/ml/ islet; Islet insulin, mean ([1]; WT mouse islets, G2, 1uM): 1.0888; Islet Glucagon ([1]; WT mouse islets, G16, 1uM): 29.473 pg/ml/ islet and 34.729 pg/ml/ islet and 57.354 pg/ml/ islet and 33.737 pg/ml/ islet and 7.252 pg/ml/ islet and 14.915 pg/ml/ islet and 23.157 pg/ml/ islet and 23.385 pg/ml/ islet and 38.776 pg/ml/ islet; Islet insulin ([1]; WT mouse islets, G16, 1uM, listed as L-005306254): 12.607 and 12.478 and 13.17 and 12.065 and 9.432 and 10.077 and 12.044 and 12.3 and 10.845 and 11.903; Islet Glucagon, mean ([1]; WT mouse islets, G16, 1uM): 29.1976 pg/ml/ islet; Islet insulin, mean ([1]; WT mouse islets, G16, 1uM): 11.6921; glucagon secretion from islets ([1]; WT mouse islets): significantly elevated

**Q.** Which results are given for `Cc1cc(OCCCS(C)(=O)=O)cc(C)c1-c1cccc(COc2ccc3c(c2)OC[C@H]3CC(=O)O)c1` [TAK-875, reference compound]?
**A.** % Bound Normalized to 100 (human GPR40; [2]): 75.92%; %Bound (human GPR40; [2]): 69.03%; % Bound Normalized to 100 (human GPR40; [3]): 61.08%; %Bound (human GPR40; [3]): 54.19%; % Bound Normalized to 100 (human GPR40; [4]): 112.60%; %Bound (human GPR40; [4]): 105.70%; % Bound Normalized to 100 (human GPR40; [5]): 125.72%; % Bound Normalized to 100 (human GPR40; [6]): 146.82%; %Bound (human GPR40; [6]): 139.93%; % Bound Normalized to 100 (human GPR40; [7]): 156.63%; %Bound (human GPR40; [7]): 149.74%; % Bound Normalized to 100 (human GPR40; [8]): 212.44%; %Bound (human GPR40; [8]): 205.55%; % Bound Normalized to 100 (human GPR40; [9]): 187.79%; %Bound (human GPR40; [9]): 180.89%; % Bound Normalized to 100 (human GPR40; [10]): 212.69%; %Bound (human GPR40; [10]): 205.79%; % Bound Normalized to 100 (human GPR40; [11]): -15.09%; %Bound (human GPR40; [11]): -21.98%
